Patent publication US20240344032A1, “ORGANOID PRODUCTION METHOD, CULTURE MEDIUM FOR ORGANOID PRODUCTION, ORGANOID, AND TEST SUBSTANCE EVALUATION METHOD” (JSR CORPORATION, priority 2021, published 2024)
Where no end group is shown, it is not given here. [ ]: non-standard residue; d: D form. The star is where a group is joined. X1 = 4‑(carboxymethyl)piperazine‑1‑carbonyl, O=C(O)CN1CCN(C(=O)*)CC1; 1Nal = N[C@@H](Cc1cccc2ccccc12)C(=O)O; Gly(NCH2CH2Ph) = O=C(O)CNCCc1ccccc1; 4Pal = N[C@@H](Cc1ccncc1)C(=O)O

Columns and labels:
[1] = system: Human colon epithelial cells (including human colon stem cells); experiment: Culturing of human colon epithelial cells (organoid formation); assay type: cell-based; conditions: 0.5 nM, 5 nM, or 50 nM in culture medium, 7 days, optical microscope, FIG. 1
Experimental: To a basal medium, each component was added to have the concentration shown in Table 3 below to prepare a culture medium. In Table 3, “CM” means conditioned medium. Advanced DMEM/F12 was used as a basal medium. As the peptide, peptide names #7401 and #2392 were used (hereinafter, each may be referred to as “#7401 peptide” and “#2392 peptide”). Regarding the #7401 peptide, a chemical formula is shown in Formula (2-1), and an amino acid sequence (SEQ ID NO: 3) is shown in Formula (2-2). In addition, regarding the #2392 peptide, a chemical formula is shown in Formula (3-1), and an amino acid sequence (SEQ ID NO: 4) is shown in Formula (3-2).
(§1) Human colon epithelial cells (including human colon stem cells) were dispersed in Matrigel (registered trademark, manufactured by BD Biosciences). Subsequently, the dispersion product was seeded into each well of a 48-well tissue culture plate and incubated at 37° C. for 10 minutes to polymerize Matrigel (registered trademark).
Subsequently, the culture medium (300 μL/well) prepared in Experimental Example 1 was overlaid on each well, and culturing was carried out at 37° C. for 7 days in the presence of 5% by volume of CO2. The culture medium was exchanged every two or three days.

[2] = system: primary human hepatocytes; experiment: Culturing of human hepatocytes (proliferation of cells); assay type: cell-based
Experimental: Cryopreserved primary human hepatocytes in suspension (HEP187-S, manufactured by Biopredic International) were thawed in a water bath at 37° C., suspended in a 50 mL tube to which a serum-free culture medium (a culture medium obtained by adding HEPES, GLUTAMAX, and PENICILIN/STEREPTOMYCIN to Advanced DMEM/F12) had been added, and centrifuged. After the centrifugation, the supernatant was removed, and then the resultant product was suspended in a serum-free culture medium to prepare a human hepatocyte suspension. 20,000 human hepatocytes were collected from the suspension, mixed with 50 μL of Matrigel (registered trademark, manufactured by BD Biosciences), seeded in a 24-well tissue culture plate, and incubated at 37° C. for 10 minutes until Matrigel (registered trademark) was completely polymerized. After the polymerization, a culture medium (500 μL/well) prepared by adding each component to a basal medium to have the concentration shown in Table 4 below was overlaid, and culturing was carried out at 37° C. in the presence of 5% by volume of CO2. Advanced DMEM/F12 was used as a basal medium. The culture medium was exchanged every two or three days.
FIG. 2 is a graph showing a result of measuring the proliferation of cells.
FIG. 3 is a graph showing a result of measuring proliferation of cells in a case where the concentration of the #7401 peptide was set to be low.

[3] = system: ALK5, VEGFR, RIPK2, MINK1, p38a MAPK, PKD1, and FGF-R1; conditions: known from the literature; cited from earlier work
[4] = system: Human small intestinal epithelial cells (including human small intestinal stem cells); experiment: Examination of EGFR signal and p38 MAPK signal: culture of small intestinal epithelial cells, bright field observation and Lgr5-tdTomato reporter assay; assay type: cell-based
Experimental: Upregulation of EGFR signal is known to induce cell proliferation. Therefore, the cell proliferative properties in a state where there was no EGFR signal were examined. […] Therefore, culturing was examined in the presence or absence of the p38 MAPK signal.
as §1, with “To the basal medium (Advanced DMEM/F12), each component was added to the concentration shown in Table 5 below to prepare a culture medium. Human” for “Human”, “small intestinal” for “colon”
Subsequently, 300 μL/well of a culture medium was overlaid, and culturing was carried out at 37° C. for 10 days in the presence of 5% by volume of CO2. The culture medium was exchanged every two or three days. Cells were cultured for 10 days in a culture medium containing EGF and cultured for 14 days in a culture medium containing no EGF. Thereafter, bright field observation with an optical microscope in the well and Lgr5-tdTomato reporter assay were carried out.

[5] = system: p38 MAPK signaling pathway; conditions: reported in Vogt J., et al., Cell Signal., 2011; cited from earlier work

Compound | organoid formation efficiency compared with A83-01 [1] | proliferation of cells ([2]; 50 nM in the culture medium, FIG. 3) | action on ALK5 and off-target kinases/receptors [3] | cell proliferative properties and colony forming properties ([4]; medium containing EGF (50 ng/mL), no SB202190, 500 nM and 5000 nM, 10 days, FIG. 5) | stem cell properties (Lgr5-tdTomato reporter) versus 50 nM or 500 nM #7401 peptide ([4]; medium containing no EGF, no SB202190, 500 nM and 5000 nM, 14 days, FIG. 6) | stem cell properties (Lgr5-tdTomato reporter), 5000 nM versus 500 nM ([4]; medium containing no EGF, no SB202190, 14 days, FIG. 6) | inhibition of p38 MAPK signaling pathway [5] | proliferation of cells ([2]; 5 μM added to the culture medium, FIG. 2)
#2392 peptide: cyclic peptide, chemical formula in Formula (3-1), amino acid sequence (SEQ ID NO: 4) in Formula (3-2) (F[1Nal]VVNVTDD[Gly(NCH2CH2Ph)]V[1Nal]THVCG; bridge (positions not given here); not fully specified (bridges)) | organoids can be formed with an efficiency equal to or higher than that in a case where A83-01 was added |  |  |  |  |  |  | 
#7401 peptide: cyclic peptide, chemical formula in Formula (2-1), amino acid sequence (SEQ ID NO: 3) in Formula (2-2) (F[1Nal]VVNV[4Pal]DD[Gly(NCH2CH2Ph)]V[1Nal]THK(X1)CG; bridge (positions not given here); not fully specified (bridges)) | organoids can be formed with an efficiency equal to or higher than that in a case where A83-01 was added | cells can sufficiently proliferate |  |  |  |  |  | 
Cc1cccc(-c2nn(C(=S)Nc3ccccc3)cc2-c2ccnc3ccccc23)n1 [Peptide A83-01] |  |  | strongly act | the cell proliferative properties and the colony forming properties were concentration-dependently inhibited | higher stem cell properties | higher stem cell properties | inhibits p38 MAPK signaling pathway | proliferation of cells is not observed after 35 days
